# Reference: patent US4298734A, “Diazaheterocyclopurines and triazolopyrimidines” (Mead Johnson & Company, priority 1979, dated 1981)
# Key:
# [1] = tested on: passive cutaneous anaphylaxis reaction (PCA) in the rat; test: Passive cutaneous anaphylaxis reaction (PCA) in the rat; type: in vivo; parameters: key to PCA, inactive at dose: I: inactive at the specified dose; details: for ED50 / PCA, ED50: oral; for inhibition in vivo at 50 mg/kg: oral dose 50 mg./kg.
# Protocol: Antiallergy activity in terms of ability to inhibit the immediate hypersensitivity reaction was measured by means of the passive cutaneous anaphylaxis reaction (PCA) in the rat (Table XI, column 7). The animals were passively sensitized by the intradermal injection of rat reagenic antiserum at various locations on the shaved back skin and 48 hours later the test drug was administered. This was followed by challenge at a predetermined interval, usually 15 minutes, by intravenous injection of egg albumin and Evans' blue dye. The dermal reaction at the sensitized site was evaluated and scored by measuring the diameter of the spot generated at the sensitized intradermal injection site. The values reported in the table are either ED50 values for the test compound in terms of mg./kg. of body weight administered orally, or percent inhibition of the dose specified in parentheses.
# [2] = Anticholinergic action mediating bronchodilator activity
# [3] = tested on: methacholine-induced bronchospasm in the rat; test: Methacholine-induced bronchospasm (pulmonary ventilation pressure) in anesthetized rat; type: in vivo; details: intraduodenal; for ED50 / Methacholine Bronchospasm, ED50: 50% inhibition of bronchospasm; for inhibition in vivo at 10 mg/kg: read-out: Methacholine Bronchospasm, percent inhibition; for Methacholine Bronchospasm, percent inhibition: dose 30 mg./kg.; for inhibition in vivo at 10 mg/kg / Methacholine Bronchospasm, inactive at dose: dose 10 mg./kg.
# From the text: Brochodilator activity in vivo (Table XI, column 6) was estimated by determining the dose of test compound required to inhibit methacholine-induced brochospasm in the rat. […] For this test, pulmonary ventilation pressure (PVP) was the parameter measured using anesthetized animals.
# [4] = tested on: rats actively sensitized with egg albumin and B. pertussis vaccine; test: Allergic bronchospasm in rats actively sensitized with egg albumin; type: in vivo; details: rat, oral, egg albumin challenge, PVP; for ED50: Bordetella pertussis
# Protocol: Antiallergy/bronchodilator studies (Table XI, column 8) were also conducted using rats which were actively sensitized with egg albumin and B. pertussis vaccine as for preparation of the reagenic antisera in the PCA test. Fifteen days following sensitization, the animals were prepared for measurement of PVP as for the methacholine-induced bronchospasm test, and changes in PVP in response to a standardized challenge of egg albumin following treatment with test drug were measured. The values reported in the table are ED50 values in terms of mg./kg. of body weight for the test compound administered orally.
# [5] = Maximum non-toxic dose in mice; details: mouse, in vivo, po; per os in mice
# From the text: Compounds of Formula I and Formula II are useful as bronchodilators, antiallergy agents in the inhibition of the immediate hypersensitivity reaction, as vasodilators, and as inhibitors of the enzyme phosphodiesterase. The invention includes processes for the treatment of mammals requiring bronchodilation, vasodilation, or having allergy with a non-toxic bronchodilator effective, vasodilator effective, or immediate hypersensitivity reaction inhibiting dose of one of these compounds. The compounds may be administered orally, parenterally, topically by inhalation, or rectally. Effective doses range from about 0.03 mg./kg. of body weight up to the maximum non-toxic dose which can be administered without undue side effects. Maximum non-toxic doses can be determined by standard pharmacologic techniques using mice. The value for the substance of Procedure 3 or 4, a preferred compound for anti-asthma use, is about 250 mg./kg. of body weight per os in mice.
# [6] = Anti-allergy and bronchodilator action compared with aminophylline
# [7] = oral dose 25 mg./kg., read-out: PCA, percent inhibition
# [8] = oral dose 10 mg./kg., read-out: PCA, percent inhibition
# [9] = read-out: PCA, percent inhibition
compound,measurement,setting,value
CCCCCCCCN1C2=NCCN2C(=O)c2[nH]cnc21 [Procedure 54],"PCA, inactive at dose",[1]; oral dose 25 mg./kg.,I
Cc1nc2c([nH]1)C(=O)N1CCN=C1N2CCOc1ccccc1 [Procedure 58],inhibition in vivo at 25 mg/kg,[1]; [7],29%
same,anticholinergic action,[2],anticholinergic action of a type which mediates improved bronchodilator activity
same,ED50,[3],0.81 mg/kg
COc1ccc(CCN2C3=NCCN3C(=O)c3[nH]cnc32)cc1OC [Procedure 11],inhibition in vivo at 10 mg/kg,[1]; [8],25%
O=C1c2[nH]cnc2N(Cc2ccc(Cl)cc2)C2=NCCN12 [Procedure 3],ED50,[1],33.7 mg/kg
same,ED50,[4],2.9 mg/kg
same,MTD,[5],~250 mg/kg
same,ED50,[3],5.2 mg/kg
O=C1c2[nH]nnc2N(Cc2ccc(Cl)c(Cl)c2)C2=NCCN12 [Procedure 28],"PCA, inactive at dose",[1]; oral dose 10 mg./kg.,I
CC1N=C2N(Cc3ccc(Cl)cc3)c3nc[nH]c3C(=O)N2C1C (stereo not drawn) [106(cis)],"PCA, ED50",[1],28.5 mg/kg
same,"Methacholine Bronchospasm, ED50",[3],3.0 mg/kg
"Cn1c(=O)c2[nH]cnc2n(C)c1=O [Theophylline, reference compound]",ED50,[1],41.5 mg/kg
same,ED50,[3],19.2 mg/kg
O=C1c2[nH]cnc2N(CC2CCCCC2)C2=NCCN12 [Procedure 59],inhibition in vivo at 25 mg/kg,[1]; [7],29%
same,inhibition in vivo at 10 mg/kg,[3],45.8%
Cc1nc2c([nH]1)C(=O)N1CC(C)N=C1N2Cc1ccc(Cl)cc1 (racemic) [Procedure 101],"PCA, ED50",[1],30.2 mg/kg
same,"Allergic Bronchospasm, ED50",[4],1.2 mg/kg
same,"Methacholine Bronchospasm, ED50",[3],1.00 mg/kg
S=C1c2[nH]cnc2N(Cc2ccc(Cl)cc2)C2=NCCN12 [Procedure 75],"PCA, inactive at dose",[1]; oral dose 25 mg./kg.,I
same,"Methacholine Bronchospasm, percent inhibition",[3],21%
O=C1c2[nH]cnc2N(Cc2ccccn2)C2=NCCN12 [Procedure 10],inhibition in vivo at 25 mg/kg,[1]; [7],40%
O=C1c2[nH]cnc2N(CCOc2ccccc2)C2=NCCN12 [Procedure 12],inhibition in vivo at 25 mg/kg,[1]; [7],27%
same,anticholinergic action,[2],anticholinergic action of a type which mediates improved bronchodilator activity
same,ED50,[3],2.3 mg/kg
O=C1c2[nH]cnc2N(Cc2ccc(F)cc2)C2=NCCN12 [Procedure 8],inhibition in vivo at 10 mg/kg,[1]; [8],29%
same,inhibition in vivo at 10 mg/kg,[3],55.5%
CCc1nc2c([nH]1)C(=O)N1CCN=C1N2Cc1ccc(Cl)cc1 [Procedure 14],inhibition in vivo at 50 mg/kg,[1]; [9],29%
same,inhibition in vivo at 10 mg/kg,[3],26%
CC(C)CN1C2=NC(C)CN2C(=O)c2[nH]cnc21 (stereo not shown) [Procedure 109],ED50,[3],4.6 mg/kg
O=C1c2[nH]c(Br)nc2N(Cc2ccc(Cl)cc2)C2=NCCN12 [Procedure 17],inhibition in vivo at 25 mg/kg,[1]; [7],34%
Cc1nc2c([nH]1)C(=O)N1CCN=C1N2CC(C)C [Procedure 63],ED50,[1],33.9 mg/kg
same,ED50,[4],5.4 mg/kg
same,ED50,[3],3.3 mg/kg
N=C1c2[nH]cnc2N(Cc2ccc(Cl)cc2)C2=NCCN12 [Procedure 77],"Methacholine Bronchospasm, percent inhibition",[3],22%
O=C1c2[nH]nnc2N(Cc2ccc(Cl)cc2)C2=NCCN12 [Procedure 25],"PCA, inactive at dose",[1]; oral dose 10 mg./kg.,I
Cn1c(Br)nc2c1C(=O)N1CCN=C1N2Cc1ccc(Cl)cc1 [Procedure 46],ED50,[3],> 30 mg/kg
COc1ccc(CCN2C3=NCCN3C(=O)c3[nH]nnc32)cc1OC [Procedure 26],inhibition in vivo at 10 mg/kg,[1]; [8],41%
O=C1c2[nH]cnc2N(Cc2cccc(Cl)c2)C2=NCCN12 [Procedure 5],inhibition in vivo at 50 mg/kg,[1]; [9],43%
same,inhibition in vivo at 10 mg/kg,[3],64%
CCCCn1cnc2c1C(=O)N1CCN=C1N2Cc1ccc(Cl)cc1 [Procedure 24],"PCA, inactive at dose",[1]; oral dose 10 mg./kg.,I
same,inhibition in vivo at 10 mg/kg,[3],16%
O=C1c2[nH]cnc2N(Cc2ccccc2Cl)C2=NCCN12 [Procedure 6],inhibition in vivo at 50 mg/kg,[1]; [9],25%
Cn1cnc2c1C(=O)N1CCN=C1N2Cc1ccc(Cl)cc1 [Procedure 67],"PCA, percent inhibition",[1]; oral dose 25 mg./kg.,26%
same,"Methacholine Bronchospasm, ED50",[3],8.8 mg/kg
O=C1c2[nH]nnc2N(CCOc2ccccc2)C2=NCCN12 [Procedure 74],"PCA, inactive at dose",[1]; oral dose 25 mg./kg.,I
same,"Methacholine Bronchospasm, inactive at dose",[3],I
CC(C)C(=O)N1C2=NCCN2C(=O)c2[nH]c(C(C)C)nc21 [Procedure 20],inhibition in vivo at 25 mg/kg,[1]; [7],46%
O=c1c2[nH]cnc2n(Cc2ccc(Cl)cc2)c2nccn12 [Procedure 124],"Methacholine Bronchospasm, ED50",[3],8.1 mg/kg
O=C1c2[nH]cnc2N(Cc2ccc(Cl)c(Cl)c2)C2=NCCN12 [Procedure 7],"PCA, inactive at dose",[1]; oral dose 25 mg./kg.,I
Cc1nc2c([nH]1)C(=O)N1CCN=C1N2Cc1ccc(Cl)cc1 [Procedure 15],inhibition in vivo at 30 mg/kg,"[1]; oral dose 30 mg./kg., read-out: PCA, percent inhibition",40%
same,ED50,[3],1.79 mg/kg
O=C1c2[nH]cnc2N(CCOc2ccc(Cl)cc2)C2=NCCN12 [Procedure 57],inhibition in vivo at 25 mg/kg,[1]; [7],31.7%
same,inhibition in vivo at 10 mg/kg,[3],66%
CC(C)CN1C2=NCCN2C(=O)c2[nH]cnc21 [Procedure 13],"PCA, inactive at dose",[1]; oral dose 25 mg./kg.,I
same,inhibition in vivo at 10 mg/kg,[3],63%
O=C1c2[nH]cnc2N(CCCc2ccccc2)C2=NCCN12 [Procedure 62],"PCA, inactive at dose",[1]; oral dose 25 mg./kg.,I
same,inhibition in vivo at 10 mg/kg,[3],22%
O=C1c2c(ncn2Cc2ccc(F)cc2)N(Cc2ccc(F)cc2)C2=NCCN12 [Procedure 44],"PCA, inactive at dose",[1]; oral dose 10 mg./kg.,I
same,inhibition in vivo at 10 mg/kg,[3],0%
CCCCCCCCN1C2=NCCN2C(=O)c2[nH]c(C)nc21 [Procedure 55],inhibition in vivo at 25 mg/kg,[1]; [7],34.9%
CCCCCCCCN1C2=NCCN2C(=O)c2[nH]c(C(C)C)nc21 [Procedure 56],inhibition in vivo at 25 mg/kg,[1]; [7],25%
CC(C)c1nc2c([nH]1)C(=O)N1CCN=C1N2Cc1ccccc1Cl [Procedure 16],"PCA, inactive at dose",[1]; oral dose 25 mg./kg.,I
CC1(C)CN2C(=O)c3nc[nH]c3N(Cc3ccc(Cl)cc3)C2=N1 [Procedure 104],ED50,[1],42.8 mg/kg
same,ED50,[4],3 mg/kg
same,ED50,[3],6.3 mg/kg
same,anti-allergy and bronchodilator action relative to aminophylline,[6],more potent than aminophylline in anti-allergy and bronchodilator action
CC1CN2C(=O)c3[nH]cnc3N(Cc3ccc(Cl)cc3)C2=N1 (racemic) [Procedure 100],"PCA, ED50",[1],10.6 mg/kg
same,"Allergic Bronchospasm, ED50",[4],1.5 mg/kg
same,"Methacholine Bronchospasm, ED50",[3],2.1 mg/kg
O=C1c2[nH]cnc2N(CCc2ccc(Cl)cc2)C2=NCCN12 [Procedure 60],"PCA, inactive at dose",[1]; oral dose 25 mg./kg.,I
same,"Methacholine Bronchospasm, inactive at dose",[3],I
CC1CN2C(=O)c3c(ncn3C)N(Cc3ccc(Cl)cc3)C2=N1 (racemic) [Procedure 102],"PCA, ED50",[1],28.9 mg/kg
same,"Allergic Bronchospasm, ED50",[4],3.4 mg/kg
same,"Methacholine Bronchospasm, ED50",[3],1.1 mg/kg
CC1N=C2N(Cc3ccc(Cl)cc3)c3nc[nH]c3C(=O)N2C1C (mixture of isomers) [106(mixed)],"PCA, ED50",[1],20.3 mg/kg
same,"Allergic Bronchospasm, ED50",[4],3.51 mg/kg
same,"Methacholine Bronchospasm, ED50",[3],3.7 mg/kg
Cc1nc2c(n1C)C(=O)N1CCN=C1N2Cc1ccc(Cl)cc1 [Procedure 117],ED50,[3],5.7 mg/kg
CC(C)c1nc2c([nH]1)C(=O)N1CCN=C1N2CCOc1ccccc1 [Procedure 108],ED50,[3],4 mg/kg
O=C1c2[nH]cnc2N(Cc2ccccc2)C2=NCCN12 [Procedure 23],"PCA, inactive at dose",[1]; oral dose 25 mg./kg.,I
CC(C)CN1C2=NCCN2C(=O)c2c1ncn2CCOc1ccccc1 [Procedure 39],"PCA, inactive at dose",[1]; oral dose 25 mg./kg.,I
same,inhibition in vivo at 10 mg/kg,[3],34.7%
COc1ccccc1CN1C2=NCCN2C(=O)c2[nH]cnc21 [Procedure 9],"PCA, inactive at dose",[1]; oral dose 10 mg./kg.,I
CC1N=C2N(Cc3ccc(Cl)cc3)c3nc[nH]c3C(=O)N2C1C (stereo not drawn) [106(trans)],"PCA, ED50",[1],35.5 mg/kg
same,"Methacholine Bronchospasm, ED50",[3],5.0 mg/kg
O=C1c2[nH]nnc2N(Cc2ccc(F)cc2)C2=NCCN12 [Procedure 27],ED50,[1],17.7 mg/kg
same,inhibition in vivo at 10 mg/kg,[3],30%
